Results taken from patent US10023592B2, “Bromodomain inhibitors” (Celgene Quanticel Research, Inc., priority 2013, dated 2018).
Where a name gives a salt, the structure may show the parent alone.

Molecular target: BRD4(BD1) (Homo sapiens (Human), UniProt O60885)
Assay: In vitro enzyme inhibition assay (BRD4 AlphaScreen)
Type: binding
Experimental: His-tagged BRD4 was cloned, expressed and purified to homogeneity. […] BRD4 binding and inhibition was assessed by monitoring the interaction of biotinylated H4-tetraacetyl peptide (AnaSpec, H4K5/8/12/16(Ac), biotin-labeled) with the target using the AlphaScreen technology (Life Technologies). […] After 20 min incubation at room temp, Alpha streptavidin donor beads and Nickel Chelate acceptor beads were added to a final concentration of 5 μg/mL.
The ability of the compounds disclosed herein to inhibit BRD4 activity was quantified and the respective IC50 value was determined.

[1] = in vitro enzyme inhibition assay

IC50 [1] [nM]	IC50 (class symbols A/B/C) [nM]	Structure (SMILES)
< 500		Cn1cc(-c2cc(CS(C)(=O)=O)ccc2OCC(F)(F)F)cc(F)c1=O [Example 421, 3-fluoro-1-methyl-5-[5-(methylsulfonylmethyl)-2-(2,2,2-trifluoroethoxy)phenyl]pyridin-2-one]
< 500		Cc1cc(-c2cc(CS(C)(=O)=O)ccc2Oc2ccc(F)cc2F)cn(CCO)c1=O [Example 406, 5-[2-(2,4-difluorophenoxy)-5-(methylsulfonylmethyl)phenyl]-1-(2-hydroxyethyl)-3-methylpyridin-2-one]
	> 5000	CCS(=O)(=O)c1cccc(-c2cn(C)c(=O)c(N)n2)c1 [Example 105, 3-amino-5-(3-ethylsulfonylphenyl)-1-methylpyrazin-2-one]
< 500		Cc1cc(-c2cc(S(=O)(=O)C(C)C)ccc2OCC2CC2)cn(C)c1=O [Example 394, 5-[2-(cyclopropylmethoxy)-5-propan-2-ylsulfonylphenyl]-1,3-dimethylpyridin-2-one]
500 to 5000		CCS(=O)(=O)c1ccc(Oc2ccc(F)cc2F)c(-c2cc(C(F)(F)F)c(=O)n(C)c2)c1 [Example 392, 5-[2-(2,4-difluorophenoxy)-5-ethylsulfonylphenyl]-1-methyl-3-(trifluoromethyl)pyridin-2-one]
< 500		CCS(=O)(=O)c1ccc(OCC2CC2)c(-c2cc(NC)c(=O)n(C)c2)c1 [Example 409, 5-[2-(cyclopropylmethoxy)-5-ethylsulfonylphenyl]-1-methyl-3-(methylamino)pyridin-2-one]
< 500		CNc1cc(-c2cc(NS(C)(=O)=O)ccc2Oc2ccc(F)cc2F)cn(C)c1=O [Example 412, N-[4-(2,4-difluorophenoxy)-3-[1-methyl-5-(methylamino)-6-oxopyridin-3-yl]phenyl]methanesulfonamide]
	> 5000	COc1ccc(-c2cn(C)c(=O)c(N)n2)cc1NS(C)(=O)=O [Example 106, N-[5-(6-amino-4-methyl-5-oxopyrazin-2-yl)-2-methoxyphenyl]methanesulfonamide]
	500 to 5000	CCNc1cc(-c2ccc(OC)c(NS(C)(=O)=O)c2)cn(C)c1=O [Example 111, N-[5-[5-(ethylamino)-1-methyl-6-oxopyridin-3-yl]-2-methoxyphenyl]methanesulfonamide]

Further lines, the compound ahead of its results:

Structure (SMILES)	IC50 [1] [nM]	IC50 (class symbols A/B/C) [nM]
CCS(=O)(=O)c1cccc(-c2cn(C)c(=O)c3ccncc23)c1 [Example 126, 4-(3-ethylsulfonylphenyl)-2-methyl-2,6-naphthyridin-1-one]		> 5000
Cc1cc(-c2cc(S(C)(=O)=O)ccc2NC2CCOC2)cn(C)c1=O (stereo not shown) [Example 425, 1,3-dimethyl-5-[5-methylsulfonyl-2-(oxolan-3-ylamino)phenyl]pyridin-2-one]	< 500	
Cn1cc(-c2cc(NS(C)(=O)=O)ccc2Oc2ccc(F)cc2F)c2c(c1=O)CCC2 [Example 506, N-[4-(2,4-difluorophenoxy)-3-(2-methyl-1-oxo-6,7-dihydro-5H-cyclopenta[c]pyridin-4-yl)phenyl]methanesulfonamide]	< 500	
CCC1CCc2cc(NS(C)(=O)=O)cc(-c3cn(C)c(=O)c4ccccc34)c2O1 (stereo not shown) [Example 490, N-[2-ethyl-8-(2-methyl-1-oxoisoquinolin-4-yl)-3,4-dihydro-2H-chromen-6-yl] methanesulfonamide]	< 500	
CCNS(=O)(=O)c1cccc(-c2cn(C)c(=O)c3ccncc23)c1 [Example 124, N-ethyl-3-(2-methyl-1-oxo-2,6-naphthyridin-4-yl) benzenesulfonamide]		500 to 5000
CC#CCOc1cc(-c2cc(C)c(=O)n(C)c2)cc(S(C)(=O)=O)c1 [Example 340, 5-(3-but-2-ynoxy-5-methylsulfonylphenyl)-1,3-dimethylpyridin-2-one]	< 500	
Cn1cc(-c2cccc(NS(C)(=O)=O)c2)cc(OCc2ccccc2)c1=O [Example 471, N-[3-(1-methyl-6-oxo-5-phenylmethoxypyridin-3-yl)phenyl]methanesulfonamide]	> 5000	
CCS(=O)(=O)Nc1cccc(-c2cn(C)c(=O)c3ccc(-c4ccccc4)cc23)c1 [Example 73, N-[3-(2-methyl-1-oxo-6-phenylisoquinolin-4-yl)phenyl]ethanesulfonamide]		500 to 5000
CCCc1cnc(NS(=O)(=O)CC)nc1-c1cn(C)c(=O)c2ccccc12 [Example 306, N-[4-(2-methyl-1-oxoisoquinolin-4-yl)-5-propylpyrimidin-2-yl] ethanesulfonamide]	< 500	
Cc1cc(=O)n(C)nc1-c1cc(S(C)(=O)=O)ccc1OCC1CC1 [Example 137, 6-[2-(cyclopropylmethoxy)-5-methylsulfonylphenyl]-2,5-dimethylpyridazin-3-one]		500 to 5000
COc1ccc2c(=O)n(C)cc(-c3cc(S(=O)(=O)C(C)C)ccc3OCC3CC3)c2c1 [Example 393, 4-[2-(cyclopropylmethoxy)-5-propan-2-ylsulfonylphenyl]-6-methoxy-2-methylisoquinolin-1-one]	< 500	
Cn1cc(-c2cc(N)c(F)cc2F)c2ccccc2c1=O [Example 24, 4-(5-amino-2,4-difluorophenyl)-2-methylisoquinolin-1-one hydrochloride]		500 to 5000
CCS(=O)(=O)c1ccc(NCC2CC2)c(-c2cn(C)c(=O)cc2C)c1 [Example 423, 5-[2-(cyclopropylmethylamino)-5-ethylsulfonylphenyl]-1,4-dimethylpyridin-2-one]	500 to 5000	
CCS(=O)(=O)Nc1cccc(-c2nn(C)c(=O)cc2C)c1 [Example 479, N-[3-(1,4-dimethyl-6-oxopyridazin-3-yl)phenyl]ethanesulfonamide]	> 5000	
CCCC1Cc2cc(NS(=O)(=O)CC)cc(-c3cc(C)c(=O)n(C)c3)c2O1 (stereo not shown) [Example 495, N-[7-(1,5-dimethyl-6-oxopyridin-3-yl)-2-propyl-2,3-dihydro-1-benzofuran-5-yl] ethanesulfonamide]	< 500	
COCC1COc2c(cc(S(C)(=O)=O)cc2-c2cc(C)c(=O)n(C)c2)O1 (stereo not shown) [Example 502, 5-[2-(methoxymethyl)-7-methylsulfonyl-2,3-dihydro-1,4-benzodioxin-5-yl]-1,3-dimethylpyridin-2-one]	< 500	
CCS(=O)(=O)c1ccc(O)c(-c2cn(C)c(=O)c3ccc(-c4cnn(C)c4)cc23)c1 [Example 80, 4-(5-ethylsulfonyl-2-hydroxyphenyl)-2-methyl-6-(1-methylpyrazol-4-yl) isoquinolin-1-one]		< 500
CNc1cccc(-c2cn(C)c(=O)c3ccccc23)c1 [Example 32, 2-methyl-4-[3-(methylamino)phenyl]isoquinolin-1-one Hydrochloride]		500 to 5000
Cc1cc(-c2cc(S(C)(=O)=O)ccc2OCC2CC2)cn(Cc2ccccc2)c1=O [Example 485, 1-benzyl-5-[2-(cyclopropylmethoxy)-5-methylsulfonylphenyl]-3-methylpyridin-2-one]	500 to 5000	
Cc1cc(=O)n(C)cc1-c1cccc(NS(C)(=O)=O)c1 [Example 95, N-[3-(1,4-dimethyl-6-oxopyridin-3-yl)phenyl]methanesulfonamide]		500 to 5000
Cn1cc(-c2ccn[nH]2)c2ccccc2c1=O [Example 68, 2-methyl-4-(1H-pyrazol-5-yl)isoquinolin-1-one]		> 5000
CCS(=O)(=O)Nc1ccc(Oc2ccc(F)cc2F)c(-c2cn(C)c(=O)c3c2CNCC3)c1 [Example 142, N-[4-(2,4-difluorophenoxy)-3-(2-methyl-1-oxo-5,6,7,8-tetrahydro-2,6-naphthyridin-4-yl)phenyl]ethanesulfonamide]	500 to 5000	
